{
  "source": "patent US20060286140A1",
  "about": "“Implants with attached silylated therapeutic agents” (priority 2003, published 2006)",
  "key": {"[1]": {"tested_on": "S. aureus (ATCC 25923)", "assay": "Disc diffusion assay", "format": "cell-based", "conditions": "1 μg/mL solution, 20 μL on six mm filter disk, overnight", "method": "Disc Diffusion Assay. Six mm sterile filter disks can be directly placed onto a full-grown lawn of S. aureus (ATCC 25923) culture, and known volumes (20 μL) and dilutions of the eluted antibiotic can be pipetted onto the disc. After incubation overnight, the area of the resultant adjacent clear zone that is devoid of bacterial growth can be measured and compared with the area cleared by a standard series of known doses of rifampin. A 1 μg/mL solution of rifampin should give a clear zone of 4-5 cm. The lower limit of sensitivity of this assay is expected to be in the 10 ng/mL range."}, "[2]": {"tested_on": "S. aureus", "conditions": "in vitro, most strains including S. aureus; cited from earlier work"}, "[3]": {"tested_on": "E. faecalis", "conditions": "in vitro; cited from earlier work"}, "[4]": {"tested_on": "E. faecium", "conditions": "in vitro; cited from earlier work"}},
  "data": [
    {"compound": "CO[C@H]1/C=C/O[C@@]2(C)Oc3c(C)c(O)c4c(O)c(c(/C=N/N5CCN(C)CC5)c(O)c4c3C2=O)NC(=O)/C(C)=C\\C=C\\[C@H](C)[C@H](O)[C@@H](C)[C@@H](O)[C@@H](C)[C@H](OC(C)=O)[C@@H]1C", "note": "(relative stereo) [rifampin, (2S*,12Z,14E,16R*,17R*,18S*,19S*,20S*,21R*,22S*,23R*,24E)-5,6,9,17,19,21-hexahydroxy-23-methoxy-2,4,12,16,18,20,22-heptamethyl-8-[N-(4-methyl-1-piperazinyl)formimidoyl]-2,7-(epoxypentadeca[1,11,13]trienimino)naphtha[2,1-b]furan-1,11-deone 21-acetate]", "values": [
      {"measurement": "clear zone", "setting": "[1]", "value": "4-5 cm"}
    ]},
    {"compound": "CN(C)c1cc(NC(=O)CNC(C)(C)C)c(O)c2c1C[C@H]1C[C@H]3[C@H](N(C)C)C(O)=C(C(N)=O)C(=O)[C@@]3(O)C(O)=C1C2=O", "note": "[tigecyclin]", "values": [
      {"measurement": "MIC90", "setting": "[2]", "value": "less than 0.25 mg/mL"},
      {"measurement": "activity relative to linezolid", "setting": "[3]", "value": "~8", "unit": "fold"},
      {"measurement": "activity relative to quinupristin-dalfopristin", "setting": "[3]", "value": 32, "unit": "fold"},
      {"measurement": "activity relative to linezolid", "setting": "[4]", "value": "~8", "unit": "fold"},
      {"measurement": "activity relative to quinupristin-dalfopristin", "setting": "[4]", "value": 32, "unit": "fold"}
    ]}
  ]
}
